The CheMixHub viscosity set
± gives the uncertainty stated by the source.

Test: xn = mol fraction of the nth substance listed

CCCCCCCCCCCCCC[P+](CCCCCC)(CCCCCC)CCCCCC.c1nnc[n-]1 + O=C=O
Settings	viscosity [mPa·s]
298.15 K, 100 kPa, x2 = 0.5	638 ± 55

CC(C)CC(=O)CC(C)C + CCC(C)O
viscosity [mPa·s], 100 kPa
Settings	x1 = 0.0815	x1 = 0.157	x1 = 0.2356	x1 = 0.3483	x1 = 0.4431	x1 = 0.5526	x1 = 0.6467	x1 = 0.7381	x1 = 0.8512	x1 = 0.9337
293.15 K	2.84 ± 0.09	2.17 ± 0.07	1.64 ± 0.05	1.1 ± 0.04	0.8 ± 0.03	0.61 ± 0.02	0.59 ± 0.02	0.66 ± 0.02	0.78 ± 0.03	0.87 ± 0.03
298.15 K	2.36 ± 0.07	1.82 ± 0.06	1.36 ± 0.04	0.88 ± 0.03	0.63 ± 0.02	0.47 ± 0.02	0.45 ± 0.02	0.54 ± 0.02	0.69 ± 0.02	0.81 ± 0.03
303.15 K	2 ± 0.06	1.54 ± 0.05	1.15 ± 0.04	0.73 ± 0.02	0.5 ± 0.02	0.37 ± 0.01	0.35 ± 0.01	0.44 ± 0.02	0.61 ± 0.02	0.75 ± 0.02
308.15 K	1.69 ± 0.05	1.33 ± 0.04	0.99 ± 0.03	0.64 ± 0.02	0.44 ± 0.02	0.31 ± 0.01	0.27 ± 0.01	0.36 ± 0.01	0.56 ± 0.02	0.72 ± 0.02
313.15 K	1.42 ± 0.04	1.11 ± 0.04	0.85 ± 0.03	0.55 ± 0.02	0.39 ± 0.01	0.27 ± 0.01	0.24 ± 0.01	–	0.51 ± 0.02	0.66 ± 0.02
318.15 K	1.23 ± 0.04	0.99 ± 0.03	0.77 ± 0.03	0.5 ± 0.02	0.35 ± 0.01	0.22 ± 0.01	0.19 ± 0.01	0.27 ± 0.01	0.47 ± 0.02	0.62 ± 0.02
323.15 K	1.11 ± 0.03	0.91 ± 0.03	0.72 ± 0.02	0.46 ± 0.02	0.3 ± 0.01	0.17 ± 0.01	0.15 ± 0.01	0.23 ± 0.01	0.42 ± 0.02	0.57 ± 0.02

CCC(C)N (centres undefined) + CCOCCO
308.15 K, 101 kPa
Settings	viscosity [mPa·s]
x2 = 0.1045	0.5211 ± 0.054
x2 = 0.208	0.6419 ± 0.066
x2 = 0.3105	0.7668 ± 0.079
x2 = 0.412	0.8957 ± 0.092
x2 = 0.5124	1.016 ± 0.1
x2 = 0.6188	1.13 ± 0.12
x2 = 0.7103	1.217 ± 0.12
x2 = 0.8078	1.304 ± 0.13
x2 = 0.9043	1.385 ± 0.14
